According to US4801597A, “Certain inositol-nicotinate ester derivatives and polyionic complexes therefore useful for treating diabetes meuitus, hyperlipidemia and lactic acidosis” (University of Florida, priority 1985, dated 1989):

Key:
[1] = test system: circulating triglyceride and cholesterol; conditions: obese and diabetic animals; cited from earlier work
[2] = one human patient, about four months; resolved when treatment stopped; cited from earlier work
peripheral tissues = conditions: cited from earlier work
lactic acid levels = conditions: patients with lactic acidosis; cited from earlier work
[3] = chronic administration, doses exceeding those used clinically; cited from earlier work
lactate oxidation = conditions: animal tissues; cited from earlier work
blood cholesterol = conditions: patients with various forms of hyperlipidemia; cited from earlier work
blood glucose = conditions: patients with diabetes mellitus; cited from earlier work
serum glucose = assay: Serum glucose lowering in fasted rats, single orogastric dose, monitored over 24 hours; format: in vivo; conditions: sodium DCA 100 mg/kg or derivative equivalent to 100 mg/kg DCA
Excerpt: (§1) Results are expressed as (1) maximum percent decrease in glucose or lactace, relative to control, (2) the time at which the maximum changes occurred, and (3) the duration of action of the drug.

blood lactate = assay: Blood lactate lowering in fasted rats, single orogastric dose, monitored over 24 hours; format: in vivo; conditions: for duration of action (blood lactate decrease): single orogastric dose, sodium DCA 100 mg/kg or derivative equivalent to 100 mg/kg DCA
Excerpt: as §1

[4] = cited from earlier work
[5] = test system: hepatic glucose production; conditions: cited from earlier work
[6] = Comparative pharmacokinetic investigations (bioavailability, oxalate formation); format: in vivo; conditions: comparative pharmacokinetic investigations with DCA and Derivative 4

Q: With O=C(O)C(Cl)Cl [DCA, dichloroacetic acid] as the compound, how does the “circulating triglyceride and cholesterol concentrations” value [1] read?
A: The value was “reduces circulating triglyceride and cholesterol concentrations”.

Q: What about the polyneuropathy [2] of the same compound?
A: Its polyneuropathy is “mild polyneuropathy that resolved when treatment stopped”.

Q: And the “glucose uptake and utilization” value (peripheral tissues)?
A: The value was “stimulates glucose uptake and utilization by peripheral tissues”.

Q: What about the “lactic acid levels and overall morbidity” value (lactic acid levels) of the same compound?
A: Its value is “significantly decreases lactic acid levels and overall morbidity in patients with lactic acidosis”.

Q: What about the chronic toxicity [3] of the same compound?
A: Its chronic toxicity is “reversible peripheral neuropathy, changes in testicular morphology and lenticular opacities”.

Q: What about the lactate oxidation (lactate oxidation) of the same compound?
A: Its lactate oxidation is “stimulates lactate oxidation in animal tissues”.

Q: What about the blood cholesterol levels (blood cholesterol) of the same compound?
A: The blood cholesterol levels was “markedly decreases blood cholesterol levels”.

Q: And the blood glucose levels (blood glucose)?
A: The blood glucose levels was “decrease blood glucose levels in patients with diabetes mellitus”.

Q: And the “duration of action (serum glucose decrease)” value (serum glucose)?
A: The value was 17 h.

Q: What about the “duration of action (blood lactate decrease)” value (blood lactate) of the same compound?
A: Its value is 18 h.

Q: What about the in vivo oxidation [4] of the same compound?
A: Its in vivo oxidation is “oxidize in vivo to glyoxylate and subsequently to oxalate”.

Q: What about the hepatic glucose production [5] of the same compound?
A: Its hepatic glucose production is “inhibits hepatic glucose production”.

Q: With O=C(OC1OC(C(=O)O)C(OC(=O)C(Cl)Cl)C(OC(=O)C(Cl)Cl)C1OC(=O)C(Cl)Cl)C(Cl)Cl (stereo not shown) [Derivative 1, potassium tetra(dichloroacetyl)glucuronate] as the compound, how does the “duration of action (serum glucose decrease)” value (serum glucose) read?
A: The value was > 24 h.

Q: And the “duration of action (blood lactate decrease)” value (blood lactate)?
A: The value was > 24 h.

Q: With O=C(OC1C(O)C(OP(=O)(O)O)C(OC(=O)C(Cl)Cl)C(OC(=O)C(Cl)Cl)C1OC(=O)C(Cl)Cl)C(Cl)Cl (stereo not shown) [Derivative 2, inositol monophosphatetetradichloroacetate] as the compound, how does the “duration of action (serum glucose decrease)” value (serum glucose) read?
A: The value was 24 h.

Q: And the “duration of action (blood lactate decrease)” value (blood lactate)?
A: Its value is > 24 h.

Q: With O=C(OC1C(OC(=O)C(Cl)Cl)C(OC(=O)C(Cl)Cl)C(OC(=O)C(Cl)Cl)C(OC(=O)C(Cl)Cl)C1OC(=O)C(Cl)Cl)C(Cl)Cl (stereo not shown) [Derivative 3, inositol hexadichloroacetate] as the compound, how does the “duration of action (serum glucose decrease)” value (serum glucose) read?
A: Its value is 6 h.

Q: And the “potency relative to DCA (blood lactate)” value (blood lactate; FIG. 2, dose equivalent to 100 mg/kg DCA)?
A: The value was “less potent than DCA”.

Q: What about the “duration of action (blood lactate decrease)” value (blood lactate) of the same compound?
A: Its value is 8 h.

Q: For C[n+]1cccc(C(=O)OC2C(OC(=O)c3ccc[n+](C)c3)C(OC(=O)c3ccc[n+](C)c3)C(OC(=O)c3ccc[n+](C)c3)C(OC(=O)c3ccc[n+](C)c3)C2OC(=O)c2ccc[n+](C)c2)c1 (stereo not shown) [Derivative 4, inositol hexa(N-methylnicotinate-dichloroacetate)], which “duration of action (serum glucose decrease)” value (serum glucose) is on record?
A: The value was > 24 h.

Q: And the formation of oxalate [6]?
A: The formation of oxalate was “minimal and unlikely to be toxic”.

Q: What about the “duration of action (blood lactate decrease)” value (blood lactate) of the same compound?
A: The value was > 24 h.
